COc1ccc(Cl)cc1C(=O)NCCc1ccc(S(=O)(=O)NC(=O)NC2CCCCC2)cc1
solubility (mole fraction)
Conditions | 283.15 K | 288.15 K | 293.15 K | 298.15 K | 303.15 K | 308.15 K | 313.15 K | 318.15 K | 323.15 K
in acetone | 0.000443 | 0.000559 | 0.000701 | 0.00088 | 0.00112 | 0.0014 | 0.00175 | 0.00219 | 0.00269
in ethanol | 0.000103 | 0.000145 | 0.000196 | 0.000259 | 0.000333 | 0.000437 | 0.00062 | 0.000893 | 0.00122
in ethyl acetate | 8.63e-05 | 0.000115 | 0.000146 | 0.000186 | 0.000236 | 0.000307 | 0.000394 | 0.000511 | 0.000647
in isopropanol | 7.96e-05 | 9.98e-05 | 0.00013 | 0.000176 | 0.000216 | 0.000286 | 0.000422 | 0.000607 | 0.000892
in methanol | 0.000129 | 0.000172 | 0.00022 | 0.0003 | 0.000378 | 0.000477 | 0.00066 | 0.00103 | 0.00137
in water | 8.38e-08 | 8.83e-08 | 1.05e-07 | 1.28e-07 | 1.64e-07 | 2.3e-07 | 3.24e-07 | 4.54e-07 | 7.84e-07

— BigSolDB 2.1
